The values that follow come from patent publication US9434739B2, “Systemic insecticide” (priority 2007, dated 2016).

The subject of test [1] is Plutella xylostella. As to conditions: described in WO 2004/060065 and Applied and Environmental Microbiology (1995), 61(12), 4429-35; cited from earlier work.
In test [2] the test system is Tenebrio molitor. As to conditions: described in WO 2004/060065 and Applied and Environmental Microbiology (1995), 61(12), 4429-35; cited from earlier work.
Test [3] has as its system Helicoverpa armiger. As to conditions: described in WO 2004/060065 and Applied and Environmental Microbiology (1995), 61(12), 4429-35; cited from earlier work.
The subject of test [4] is Myzus persicae Sulzer. The experiment in a line: Reference Test: cabbage leaf disk spraying treatment against Myzus persicae Sulzer. The test is classed as in vivo. As to conditions: 20 ppm test solution spread over cabbage leaf disk, first instar larvae, three days after release, 25° C. The source says:
A leaf disk having a diameter of 2.8 cm was cut out from a cabbage grown in a pot and was placed in a 5.0 cm-Schale. Four adult aphids of Myzus persicae Sulzer were released in the Schale. One day after the release of the adult aphids, the adult aphids were removed. The number of larvae at the first instar born in the leaf disk was adjusted to 10, and 20 ppm of a test solution which had been prepared as a 50% aqueous acetone solution (0.05% Tween 20 added) was spread over the cabbage leaf disk. The cabbage leaf disk was then air dried. Thereafter, the Schale was lidded and was allowed to stand in a thermostatic chamber of 25° C. […] Mortality (%)={number of dead larvae/(number of survived larvae+number of dead larvae)}×100

In test [5] the test system is Laodelphax stratella. The experiment in a line: Soil drenching treatment test on rice seedlings against Laodelphax stratella (Test Example 6). As to conditions: soil drenching of rice pot, 0.5 mg/seedling, second instar larvae, 3 days after release. Format: in vivo. How it is done: Rice seedlings grown in a pot were provided. Soil in the pot was drenched with a test solution adjusted to a predetermined concentration with a 10% aqueous acetone solution. After standing for three days, 10 larvae at the second instar were released on the rice seedlings. Thereafter, the pot was allowed to stand in a thermostatic chamber of 25° C. (light period 16 hr-dark period 8 hr). 3 days after the release, the number of survived larvae was measured, and the mortality of larvae was calculated by the same equation as in the Reference Test. The test was duplicated.

The test system of test [6] is Trialeurodes uaporariorum. The experiment in a line: Soil drenching treatment test on cucumber against Trialeurodes uaporariorum (Test Example 5). The test is classed as in vivo. To be noted: soil drenching of cucumber pot, 0.5 mg/seedling, larvae, 9 days after drenching. As for the experimental part: Adults of Trialeurodes uaporariorum were released on cucumber seedlings, grown in a pot, for egg laying purposes for two days. 10 days after the start of egg laying, it was confirmed that larvae were hatched from the delivered eggs. The soil in the cucumber pot was drenched with 5 mL of a test solution adjusted to a predetermined concentration with a 10% aqueous acetone solution. The cucumber pot was allowed to stand in a thermostatic chamber of 25° C. (light period 16 hr-dark period 8 hr). 9 days after the drenching, the number of survived larvae was measured, and the mortality of larvae was calculated by the following equation. The test was duplicated. Mortality (%)={(number of larvae before treatment−number of survived larvae)/number of larvae before treatment}×100

Test [7] has as its system Rhopalosiphum padi. The experiment in a line: Root soaking treatment test on wheat seedlings against Rhopalosiphum padi (Test Example 3 and Comparative Tests). Format: in vivo. To be noted: wheat seedling root soaked 72 hr in test solution (100 ppm), 20 μg/seedling, 25° C. As for the experimental part:
The root of wheat seedlings 48 hr after seeding was soaked for 72 hr in a test solution (100 ppm) prepared as a 10% aqueous acetone solution. 72 hrs after the treatment, 10 larval Rhopalosiphum padi were released for each seedling. Thereafter, the seedlings were allowed to stand in a thermostatic chamber of 25° C. The number of parasites on stems and leaves was observed six days after the release, and the density index was calculated by the same equation as in Test Example 1. The test was duplicated.
For compounds 8 and 9 described in Table 6, a insecticidal effect against Rhopalosiphum padi was examined in the same manner as in Test Example 3.

The subject of test [8] is Aphis gossypii. The experiment in a line: Soil drenching with single agent and admixture on cucumber against Aphis gossypii (Test Example 8). The test is classed as in vivo. To be noted: for Preventive value: 2 days after release. As for the experimental part: Cucumber seedlings were treated by soil drenching with a single agent and an admixture adjusted to a predetermined concentration with water. The chemical was absorbed through the root for two days, and four adults of Aphis gossypii for each seedling were released on the seedlings. Thereafter, the seedlings were allowed to stand in a thermostatic chamber of 25° C. 2 days after the release, the number of parasites on the leaves was observed. The density index in each treated plot was determined by presuming the density in the non-treated plot to be 100. The preventive value was calculated by the following equation. Preventive value=100−density index
(§1) When the density index exceeded 100, the preventive value was regarded as 0 (zero).
(§2) Theoretical value=A+B−(A×B)/100 Colby's formula
(§3) where A: preventive value when treatment was performed only with compound 4, and
B: preventive value when treatment was performed only with each of acephate and imidacloprid.
When the numerical value for the admixture in Table 10 exceeded the theoretical value calculated by the Colby's formula shown in Table 11, the admixture was determined to have a synergistic effect.

In test [9] the test system is Nephotettix cincticeps. The experiment in a line: Soil drenching treatment test on rice seedlings against Nephotettix cincticeps (Test Example 7). The test is classed as in vivo. As to conditions: soil drenching of rice pot, 1.0 mg/seedling, second instar larvae, 3 days after release. How it is done: Rice seedlings grown in a pot were provided. Soil in the pot was drenched with a test solution adjusted to a predetermined concentration with a 10% aqueous acetone solution. After standing for three days, 10 larvae at the second instar were released on the rice seedling. Thereafter, the pot was allowed to stand in a thermostatic chamber of 25° C. (light period 16 hr-dark period 8 hr). 3 days after the release, the number of survived larvae was measured, and the mortality of larvae was calculated by the same equation as in the Reference Test. The test was duplicated.

For test [10], the system named is Rhopalosiphum padi. The experiment in a line: Root soaking with single agent and admixture on wheat against Rhopalosiphum padi (Test Example 9). The test is classed as in vivo. As to conditions: for Preventive value: six days after release. As for the experimental part: The root of wheat seedlings 48 hr after seeding was soaked for 72 hr in an admixture solution, adjusted to a predetermined concentration, as a 10% aqueous acetone solution. 72 hrs after the treatment, 10 larval Rhopalosiphum padi for each seedling were released on the seedlings. Thereafter, the seedlings were allowed to stand in a thermostatic chamber of 25° C. The number of parasites on stems and leaves was observed six days after the release. The density index of each of the treated plots was determined by presuming the density of the non-treated plots to be 100, and the preventive value was calculated by the same equation as in Test Example 8.
as §1, §2, §3
B: preventive value when treatment was performed only with each of acetamiprid, acephate, and imidacloprid.
When the preventive value against Rhopalosiphum padi for the admixture in Table 12 exceeded the theoretical value calculated by the Colby's formula shown in Table 13, the admixture was determined to have a synergistic effect.

Where [11] appears, read: Compound 4 0.05 mg/seedling, alone (—) or with acephate 0.1 mg/seedling or imidacloprid 0.005 mg/seedling.
Setting [12] is: Compound 4 0.5 μg/seedling, alone (—) or with acetamiprid 0.0078, acephate 0.5 or imidacloprid 0.0078 μg/seedling.
Setting [13] is: Compound 4 0 mg/seedling, acephate 0.1 mg/seedling, imidacloprid 0.005 mg/seedling.
Where [14] appears, read: Compound 4 0 mg/seedling, other insecticide alone (acephate 0.1 mg/seedling, imidacloprid 0.005 mg/seedling).
[15] abbreviates: Compound 4 0 μg/seedling, acetamiprid 0.0078, acephate 0.5, imidacloprid 0.0078 μg/seedling.
Where [16] appears, read: Compound 4 0 μg/seedling, other insecticide alone (acetamiprid 0.0078, acephate 0.5, imidacloprid 0.0078 μg/seedling).

pyripyropene A: the insecticidal effect entry in test [1], in test [2] and in [3] was “has insecticidal effect” each time.

As for `CC1(COC(=O)C2CC2)C2C[C@H](O)[C@@]3(C)Oc4cc(-c5cccnc5)oc(=O)c4[C@H](O)C3[C@@]2(C)CC[C@@H]1OC(=O)C1CC1` (some centres unmarked) [Compound 4], the Mortality in test [4] is reported as 100%. Moreover, the entries for the “Mortality (%)” value in test [5], in test [6] and in test [9] were 34%, 67% and 60%, respectively. In test [7], the “Density index 6 days after release” value turned out to be 5. The “Theoretical value calculated by Colby's formula” value (shortened to “Theoretical value calculated”) in test [8] (setting [11]) and in test [10] (setting [12]) was 0 in each case. For the same compound, the Preventive value in test [8] (setting [11]) and in test [10] (setting [12]) was 0 in each case.

For the compound `O=[N+]([O-])NC1=NCCN1Cc1ccc(Cl)nc1` [Imidacloprid, imidacloprid], the entries for the “Theoretical value calculated” value in test [8] (setting [13]) and in [10] (setting [15]) were 16 and 28.6, respectively. Moreover, the Preventive value in test [8] (setting [14]) was found to be 16; in test [10] (setting [16]), 28.6.

Take `C/C(=N\C#N)N(C)Cc1ccc(Cl)nc1` [Acetamiprid, acetamiprid]: the “Theoretical value calculated” value in test [10] (setting [15]) is given as 5.9. Also, the Preventive value in test [10] (setting [16]) is 5.9.

For the compound `COP(=O)(NC(C)=O)SC` (centres unmarked) [Acephate, acephate], the “Theoretical value calculated” value in test [8] (setting [13]) was 70; in test [10] (setting [15]) it was 55.6. The Preventive value is 70 in test [8] (setting [14]) and 55.6 in test [10] (setting [16]).

Turning to `CC1(COC(=O)C2CC2)C2CC[C@@]3(C)Oc4cc(-c5cccnc5)oc(=O)c4[C@H](O)C3[C@@]2(C)CC[C@@H]1OC(=O)C1CC1` (some centres unmarked) [Compound 7], the Mortality in [4] amounted to 100%. Moreover, the “Density index 6 days after release” value in [7] amounted to 41.

On to `CC1(COC(=O)C2CC2)C2CC(=O)[C@@]3(C)Oc4cc(-c5cccnc5)oc(=O)c4[C@H](O)C3[C@@]2(C)CC[C@@H]1OC(=O)C1CC1` (some centres unmarked) [Compound 6], for which the Mortality in test [4] was determined as 100%. Moreover, in test [7], the “Density index 6 days after release” value amounted to 0.
